Results reported in PubChem BioAssay (NCI).
“And” between values parts separate entries of the source, which are not always exact repeats. Equal entries are not always repeated.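 Dose response: 5 concentrations. Exposure: 48 h. Format: 96-well plates. Endpoint: linear interpolation; highest concentration if not reached. At the GI50, growth is halved. TGI marks complete inhibition of growth.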

Tests used:
Assay in all cases: DTP human tumour cell line panel, 48 h
[1] = system: LOX IMVI melanoma
[2] = system: OVCAR-5 ovarian
[3] = system: IGROV1 ovarian
[4] = system: SF-539 CNS
[5] = system: HS 578T breast
[6] = system: NCI-H522 lung
[7] = system: A498 renal
[8] = system: OVCAR-3 ovarian
[9] = system: SR leukemia
[10] = system: CAKI-1 renal

Row | Structure (SMILES) | GI50 [1] [µM] | TGI [1] [µM] | GI50 [2] [µM] | TGI [2] [µM] | GI50 [3] | TGI [3] [µM] | GI50 [4] [µM] | TGI [4] [µM] | GI50 [5] [µM] | TGI [5] [µM] | GI50 [6] | TGI [6] [µM] | GI50 [7] [µM] | TGI [7] [µM] | GI50 [8] [µM] | GI50 [9] [µM] | TGI [9] [µM] | GI50 [10] [µM] | TGI [10] [µM] | TGI [8] [µM]
1 | O=C1OCC2=C1C(c1cccc(F)c1)c1cc3c(cc1N2CCO)OCCO3 (configuration not stated) | 0.265 | > 50 | 0.541 | > 50 | 0.333 µM | > 50 | 0.141 | 0.831 | 0.179 | 7.16 | 0.0418 µM | 2.58 | 0.111 | 0.438 | 0.142 | 0.078 | > 50 | 0.144 | > 50 | 
2 | CC(=O)OC1CCC2(C)C(CCC3C2CCC2(C)C(C4=CC(=O)OC4)CCC32)C1 (configuration not stated) | 0.42 | > 100 | 11.5 | 55.8 | 16.9 µM | 53.2 | 2.68 | 9.15 | 4.68 | 32.1 | 1.53 µM | 3.99 | 1.43 | 3.4 | 20.6 | 0.468 | 10.9 | 11.2 | 33.1 | 86
3 | COc1ccc(S(=O)(=O)O)cc1NS(=O)(=O)c1ccc(C)cc1 |  | > 100 |  | > 100 |  | > 100 |  | > 100 |  | > 100 |  | > 100 |  | > 100 |  |  | > 100 |  | > 100 | > 100
4 | COc1cc(/C=C/C(=O)c2c(C)n([O-])c3cc(C)c(C)cc3[n+]2=O)cc(OC)c1OC | 11.9 | 29.2 | 17.6 | 47.1 | 12.8 µM | 29.4 | 14.9 | 31.6 | 19.9 | 54.2 | 10.9 µM | 28.9 | 12.1 | 37.7 | 16.8 | 13.4 | > 100 | 10.8 | 29.6 | 41.6
5 | Cc1cc(-c2ccccc2)c(C)n1Cc1ccc(Cl)cc1 | 6.95 | > 100 | 12.3 | > 100 | 5.21 µM | > 100 | 2.8 | 12.1 | 4.43 | > 100 | 2.57 µM | 9.26 | 2.21 | 47.9 | 3.54 | 0.592 | 26.7 | 3.66 | > 100 | 23.5
6 | Cc1cc2nc3ccc(N=Nc4ccc(N(C)C)cc4)cc3n(-c3ccccc3)c-2cc1=N | 0.0259 | 0.117 | 0.0486 | 1.55 | 0.0221 µM and 0.0328 µM |  | 0.0226 | 0.153 | 0.0168 | 0.0816 | 0.0199 µM and 0.147 µM |  | 0.0308 | 1.09 | 0.0121 | 0.0208 | 0.394 | 0.0369 | 1.07 | 0.039
7 | O=C(Cc1ccccc1)Nc1nnc(CCSCCc2nnc(NC(=O)Cc3ccccc3)s2)s1 | 1.72 | 11.1 | > 100 | > 100 | 25.9 µM | > 100 | 22.8 | > 100 | 1.93 | 79.9 | 8.41 µM | > 100 | 0.696 | 31.9 | 6.16 | 13.9 | 32.6 | 11.7 | 66 | 49.2
8 | O=C1CC(c2ccccc2)Cc2nc3ccc(Cl)cc3cc21 (configuration not stated) | 0.626 | 26.2 | 0.791 | > 100 | 0.397 µM | > 100 | 0.211 | 0.642 | 0.351 | > 100 | 0.194 µM | 19 | 0.0503 | 0.401 | 0.313 | 0.0553 | 35.2 | 0.112 | > 100 | 1.16
9 | Cc1sc2nc(-c3ccccn3)c(/C=N/N=C(N)N)n2c1C | 4.01 | 8.26 | 7.67 | 16.2 | 25.6 µM | > 58.3 | 28.6 | 50.8 | 12.7 | 27.7 | 5.18 µM | 13.3 | 11.8 | 24.4 | 8.03 | > 100 | > 100 | 9.11 | 18.3 | 15.6
